The source made the active and inactive calls. No cut-off for these calls is given here.
Tests used:
[1] = molecular target: T1, Keap1/Nrf2 (Homo sapiens, UniProt Q14145); experiment: Inhibition of Keap1-Nrf2 protein-protein interaction (unknown origin) preincubated for 30 mins followed by Terbium labeled anti-His antibody addition for 30 mins prior to fluorescein labeled-9mer Nrf2 peptide addition and measured after 60 mins by TR-FRET assay
[2] = molecular target: T1, Keap1/Nrf2; experiment: Inhibition of Keap1-Nrf2 protein-protein interaction (unknown origin) incubated for 34 mins by fluorescence polarization assay
[3] = molecular target: T2, Keap1/Nrf2 (Homo sapiens) (UniProt Q16236+Q14145); experiment: Inhibition of Keap1-Nrf2 protein-protein interaction in human NCM460D cells assessed as fold increase in NQO1 gene expression at 10 uM by RT-qPCR analysis; assay type: cell-based
[4] = molecular target: T2, Keap1/Nrf2 (Homo sapiens); experiment: Inhibition of Keap1-Nrf2 protein-protein interaction in human NCM460D cells assessed as fold increase in HMOX1 gene expression at 10 uM by RT-qPCR analysis; assay type: cell-based
[5] = molecular target: T2, Keap1/Nrf2 (Homo sapiens); experiment: Inhibition of Keap1-Nrf2 protein-protein interaction in human NCM460D cells assessed as increase in HMOX1 gene expression at 100 uM by RT-qPCR analysis; assay type: cell-based
[6] = molecular target: T2, Keap1/Nrf2 (Homo sapiens); experiment: Inhibition of Keap1-Nrf2 protein-protein interaction in human NCM460D cells assessed as increase in NQO1 gene expression at 100 uM by RT-qPCR analysis; assay type: cell-based
[7] = molecular target: T2, Keap1/Nrf2 (Homo sapiens); experiment: Inhibition of Keap1-Nrf2 protein-protein interaction in human NCM460D cells assessed as fold increase in GSTM3 gene expression at 10 uM by RT-qPCR analysis; assay type: cell-based
[8] = molecular target: T2, Keap1/Nrf2 (Homo sapiens); experiment: Inhibition of Keap1-Nrf2 protein-protein interaction in human NCM460D cells assessed as increase in GSTM3 gene expression at 100 uM by RT-qPCR analysis; assay type: cell-based
[9] = molecular target: T2, Keap1/Nrf2 (Homo sapiens); experiment: Inhibition of Keap1-Nrf2 protein-protein interaction in human NCM460D cells assessed as fold increase in GSTM3 gene expression at 100 uM by RT-qPCR analysis; assay type: cell-based
[10] = molecular target: T2, Keap1/Nrf2 (Homo sapiens); experiment: Inhibition of Keap1-Nrf2 protein-protein interaction in human NCM460D cells assessed as fold increase in NQO1 gene expression at 100 uM by RT-qPCR analysis; assay type: cell-based
[11] = molecular target: T2, Keap1/Nrf2 (Homo sapiens); experiment: Inhibition of Keap1-Nrf2 protein-protein interaction in human NCM460D cells assessed as fold increase in HMOX1 gene expression at 100 uM by RT-qPCR analysis; assay type: cell-based

T2 sequence (Q14145 whole entry, looked up): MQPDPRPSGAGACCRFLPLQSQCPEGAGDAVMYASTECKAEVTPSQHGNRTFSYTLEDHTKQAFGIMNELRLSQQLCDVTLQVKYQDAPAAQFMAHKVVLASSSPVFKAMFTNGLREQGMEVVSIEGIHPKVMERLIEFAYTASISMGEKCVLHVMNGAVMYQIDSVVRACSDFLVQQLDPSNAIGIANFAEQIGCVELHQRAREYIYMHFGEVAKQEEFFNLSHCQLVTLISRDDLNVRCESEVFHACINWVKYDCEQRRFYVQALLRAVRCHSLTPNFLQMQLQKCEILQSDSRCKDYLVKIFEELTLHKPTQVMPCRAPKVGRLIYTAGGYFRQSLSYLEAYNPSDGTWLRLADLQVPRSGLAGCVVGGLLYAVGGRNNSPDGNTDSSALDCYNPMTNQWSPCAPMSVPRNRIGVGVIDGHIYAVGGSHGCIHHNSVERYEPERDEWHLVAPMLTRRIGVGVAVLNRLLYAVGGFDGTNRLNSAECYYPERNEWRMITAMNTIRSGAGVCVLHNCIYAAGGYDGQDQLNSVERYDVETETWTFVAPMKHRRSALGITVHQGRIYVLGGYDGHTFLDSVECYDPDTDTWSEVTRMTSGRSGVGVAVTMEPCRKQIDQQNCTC
T2 sequence (Q16236 whole entry, looked up): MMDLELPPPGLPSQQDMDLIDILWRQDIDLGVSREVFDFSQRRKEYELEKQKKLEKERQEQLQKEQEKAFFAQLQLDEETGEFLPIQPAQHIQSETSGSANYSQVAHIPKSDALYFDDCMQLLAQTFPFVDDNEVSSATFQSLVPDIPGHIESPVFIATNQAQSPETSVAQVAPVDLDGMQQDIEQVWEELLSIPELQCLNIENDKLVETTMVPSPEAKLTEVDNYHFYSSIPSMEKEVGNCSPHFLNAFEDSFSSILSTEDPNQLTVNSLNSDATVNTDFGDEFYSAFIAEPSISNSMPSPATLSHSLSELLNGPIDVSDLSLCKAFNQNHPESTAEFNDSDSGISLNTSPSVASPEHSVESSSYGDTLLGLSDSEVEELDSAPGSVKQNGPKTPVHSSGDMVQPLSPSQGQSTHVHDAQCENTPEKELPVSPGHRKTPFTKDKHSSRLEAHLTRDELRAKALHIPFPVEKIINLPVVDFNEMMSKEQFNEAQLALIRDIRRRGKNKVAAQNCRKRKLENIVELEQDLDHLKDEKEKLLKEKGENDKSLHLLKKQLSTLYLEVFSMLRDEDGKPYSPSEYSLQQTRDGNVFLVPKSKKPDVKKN
T1 sequence (Q16236 whole entry): as the sequence (Q16236 whole entry, looked up) above
T1 sequence (Q14145 whole entry): as the sequence (Q14145 whole entry, looked up) above

COc1ccc(S(=O)(=O)N(CC(=O)O)c2cc(CCCN(C)Cc3ccccc3)c(N(CC(=O)O)S(=O)(=O)c3ccc(OC)cc3)c3ccccc23)cc1
IC50 [1]: 73.6 nM | Ki [1]: 32.9 nM

COc1ccc(S(=O)(=O)N(CC(=O)O)c2cc(CCC(=O)NC(C)C)c(N(CC(=O)O)S(=O)(=O)c3ccc(OC)cc3)c3ccccc23)cc1
IC50 [1]: 12.6 nM | Ki [1]: 4.6 nM | IC50 [2]: 102 nM

COc1ccc(S(=O)(=O)N(CC(=O)O)c2cc(CCC(N)=O)c(N(CC(=O)O)S(=O)(=O)c3ccc(OC)cc3)c3ccccc23)cc1
IC50 [1]: 11.7 nM | Ki [1]: 4.2 nM | IC50 [2]: 108 nM

COc1ccc(S(=O)(=O)N(CC(=O)O)c2cc(CCCN3C(=O)c4ccccc4C3=O)c(N(CC(=O)O)S(=O)(=O)c3ccc(OC)cc3)c3ccccc23)cc1
fold change (FC) [3]: 3 | fold change (FC) [4]: 3 | HMOX1 gene expression increase (active/not active) [5]: Active | IC50 [1]: 2.5 nM | Ki [1]: < 0.1 nM | IC50 [2]: 77 nM | inhibition [6]: Active | fold change (FC) [7]: 3 | inhibition [8]: Active

COc1ccc(S(=O)(=O)N(CC(=O)O)c2cc(Sc3ccccc3)c(N(CC(=O)O)S(=O)(=O)c3ccc(OC)cc3)c3ccccc23)cc1
IC50 [1]: 5.8 nM | Ki [1]: 1.5 nM | IC50 [2]: 85 nM

COc1ccc(S(=O)(=O)N(CC(=O)O)c2cc(-c3ccc(C#N)cc3)c(N(CC(=O)O)S(=O)(=O)c3ccc(OC)cc3)c3ccccc23)cc1
HMOX1 gene expression increase (active/not active) [5]: inactive | IC50 [1]: 9.2 nM | Ki [1]: 3.1 nM | IC50 [2]: 117 nM | inhibition [6]: inactive | inhibition [8]: inactive

COc1ccc(S(=O)(=O)N(CC(=O)O)c2cc(CCC(=O)N3CCOCC3)c(N(CC(=O)O)S(=O)(=O)c3ccc(OC)cc3)c3ccccc23)cc1
HMOX1 gene expression increase (active/not active) [5]: Active | IC50 [1]: 6.9 nM | Ki [1]: 2 nM | IC50 [2]: 87 nM | inhibition [6]: Active | inhibition [8]: Active

COc1ccc(S(=O)(=O)N(CC(N)=O)c2cc(CCC(=O)O)c(N(CC(N)=O)S(=O)(=O)c3ccc(OC)cc3)c3ccccc23)cc1
IC50 [1]: 22.7 nM | Ki [1]: 9.3 nM | IC50 [2]: 162 nM

COc1ccc(-c2cc(N(CC(=O)O)S(=O)(=O)c3ccc(OC)cc3)c3ccccc3c2N(CC(=O)O)S(=O)(=O)c2ccc(OC)cc2)cc1
fold change (FC) [9]: 8 | HMOX1 gene expression increase (active/not active) [5]: Active | IC50 [1]: 13.1 nM | Ki [1]: 4.9 nM | fold change (FC) [10]: 8 | IC50 [2]: 85 nM | fold change (FC) [11]: 8 | inhibition [6]: Active | inhibition [8]: Active

COc1ccc(S(=O)(=O)N(CC(=O)O)c2cc(-c3ccccc3)c(N(CC(=O)O)S(=O)(=O)c3ccc(OC)cc3)c3ccccc23)cc1
IC50 [1]: 7.7 nM | Ki [1]: 2.4 nM | IC50 [2]: 96 nM

COc1ccc(S(=O)(=O)N(CC(=O)O)c2cc(-c3ccc(N4C(=O)c5ccccc5C4=O)cc3)c(N(CC(=O)O)S(=O)(=O)c3ccc(OC)cc3)c3ccccc23)cc1
fold change (FC) [3]: 3 | fold change (FC) [4]: 3 | HMOX1 gene expression increase (active/not active) [5]: Active | IC50 [1]: 7.1 nM | Ki [1]: 2.1 nM | IC50 [2]: 90 nM | inhibition [6]: Active | fold change (FC) [7]: 3 | inhibition [8]: Active

Reference: ChEMBL document CHEMBL5360554, “Optimization of the C2 substituents on the 1,4-bis(arylsulfonamido)naphthalene-N,N'-diacetic acid scaffold for better inhibition of Keap1-Nrf2 protein-protein interaction” (Eur J Med Chem, 2023)
